Experimental data from patent publication US7947703B2, “Phenanthridinium derivatives as DNA binding agents” (University Court of the University of Glasgow, priority 2003, dated 2011).
Marks after values point to notes of the source that are not given here.

Assays:
[1] = test system: human ovarian tumour cell line A2780; assay: growth (tetrazolium dye-based microtitration) cytotoxicity assay, A2780; type: cell-based
Experimental: (§1) Compounds were tested in a growth assay with a 24 hours drug exposure and a 3 day recovery period. Cell lines used were human ovarian tumour cell line A2780 and 2 Cisplatin resistant derivatives cell lines A27080/cp70 and MCP1. IC50 is the concentration of drug required to reduce the surviving cell number to 50% of that of the control untreated cells. Results are from one experiment and are the mean±SEM of the triplicate plates.
(§2) DIP cytotoxicity was determined by a tetrazolium dye-based microtitration assay. DNA affinity measurements of DIPs were undertaken using Isothermal Titration Calorimetry (ITC).

[2] = test system: Cisplatin resistant cell line A2780/cp70; assay: growth (tetrazolium dye-based microtitration) cytotoxicity assay, A2780/cp70; type: cell-based, human
Experimental: as §1, §2

[3] = test system: Cisplatin resistant cell line MCP1; assay: growth (tetrazolium dye-based microtitration) cytotoxicity assay, MCP1; type: cell-based, human
Experimental: as §1, §2

Salmon DNA = assay: DNA affinity by Isothermal Titration Calorimetry (ITC), Salmon DNA; type: binding
Experimental: as §2

Calf DNA = assay: DNA affinity by Isothermal Titration Calorimetry (ITC), Calf DNA; type: binding
Experimental: as §2

DNA = assay: Viscosimetry analysis (DNA intercalation); conditions: preliminary result

SMILES: c1ccc2c(c1)c1[n+](c3ccccc23)CCN1 [AP5-94, 2,3-Dihydro-1H-imidazo[1,2-f]phenanthridin-4-ylium bromide]
- cytotoxicity on cisplatin-sensitive cell line A2780 (in words) [1]: high cytotoxicity
- IC50 ([1]; Homo sapiens, A2780, cisplatin-sensitive line, 24 hours drug exposure, 3 day recovery, mean±SEM of triplicate plates): 1560 ± 180 nM
- less active on A2780/cp70 than on A2780 [2]: 50%
- IC50 ([2]; Homo sapiens, A2780/CP70, cisplatin-resistant line, 24 hours drug exposure, 3 day recovery, mean±SEM of triplicate plates): 2300 ± 150 nM
- RF1 ([2]; rapport of the IC50 between A2780 and A2780/cp70, the lower RF the better): 1.5
- more active on MCP1 than A2780 [3]: 50%
- IC50 ([3]; Homo sapiens, cisplatin-resistant line, 24 hours drug exposure, 3 day recovery, mean±SEM of triplicate plates): 820 ± 90 nM
- RF2 ([3]; rapport of the IC50 between A2780 and MCP1, the lower RF the better): 0.5
- Ka Salmon DNA (Salmon DNA): 2.56 ± 802.6 M^−1 (10^4)
- Ka Calf DNA (Calf DNA): 2.06 ± 907 M^−1 (10^4)
- viscosity of DNA (in words) (DNA): increase of viscosity similar to the one obtained with the DNA intercalator reference ethidium bromide
